Values of other authors as cited in patent US20090215137A1, “METHODS FOR THE ECONOMICAL PRODUCTION OF BIOFUEL PRECURSOR THAT IS ALSO A BIOFUEL FROM BIOMASS” (GEVO, INC., priority 2007, published 2009).
Converted amounts (≈) assume the structure as drawn. Where two headings read alike, the source gives them in different places. Values belong to the compound of their own block, whether it stands above or below them.

Experiments:
[1] = tested on: Klyveromyces marxianus; conditions: in binary combination
[2] = octanol:water

Solubility in water (20° C., unless noted) (in words): miscible
Compound: CC(C)O [Biocatalyst 2-propanol, 2-propanol]

Compound: COc1cc(C=O)ccc1O [Vanillin, vanillin]
reduction in both cell growth and fermentation [1]: 90%

Solubility in water (20° C., unless noted): 300 µg/mL (≈ 2300 µM)
solubility limit (two-phase system (Chen, Q. 1995)): < 1100 µg/mL
log P [2]: 3
Compound: CCCCCCCCO [Biocatalyst 1-octanol, 1-octanol]

Compound: CCC(C)O (stereo not drawn) [Biocatalyst 2-butanol, 2-butanol]
log P [2]: 0.6
